For the assay, the target named is T1, hTLR8 (Homo sapiens, UniProt Q9NR97).
T1 construct: host or cells: HEK293 cells stably transfected with hTLR8
T1 sequence (Q9NR97 27-1041): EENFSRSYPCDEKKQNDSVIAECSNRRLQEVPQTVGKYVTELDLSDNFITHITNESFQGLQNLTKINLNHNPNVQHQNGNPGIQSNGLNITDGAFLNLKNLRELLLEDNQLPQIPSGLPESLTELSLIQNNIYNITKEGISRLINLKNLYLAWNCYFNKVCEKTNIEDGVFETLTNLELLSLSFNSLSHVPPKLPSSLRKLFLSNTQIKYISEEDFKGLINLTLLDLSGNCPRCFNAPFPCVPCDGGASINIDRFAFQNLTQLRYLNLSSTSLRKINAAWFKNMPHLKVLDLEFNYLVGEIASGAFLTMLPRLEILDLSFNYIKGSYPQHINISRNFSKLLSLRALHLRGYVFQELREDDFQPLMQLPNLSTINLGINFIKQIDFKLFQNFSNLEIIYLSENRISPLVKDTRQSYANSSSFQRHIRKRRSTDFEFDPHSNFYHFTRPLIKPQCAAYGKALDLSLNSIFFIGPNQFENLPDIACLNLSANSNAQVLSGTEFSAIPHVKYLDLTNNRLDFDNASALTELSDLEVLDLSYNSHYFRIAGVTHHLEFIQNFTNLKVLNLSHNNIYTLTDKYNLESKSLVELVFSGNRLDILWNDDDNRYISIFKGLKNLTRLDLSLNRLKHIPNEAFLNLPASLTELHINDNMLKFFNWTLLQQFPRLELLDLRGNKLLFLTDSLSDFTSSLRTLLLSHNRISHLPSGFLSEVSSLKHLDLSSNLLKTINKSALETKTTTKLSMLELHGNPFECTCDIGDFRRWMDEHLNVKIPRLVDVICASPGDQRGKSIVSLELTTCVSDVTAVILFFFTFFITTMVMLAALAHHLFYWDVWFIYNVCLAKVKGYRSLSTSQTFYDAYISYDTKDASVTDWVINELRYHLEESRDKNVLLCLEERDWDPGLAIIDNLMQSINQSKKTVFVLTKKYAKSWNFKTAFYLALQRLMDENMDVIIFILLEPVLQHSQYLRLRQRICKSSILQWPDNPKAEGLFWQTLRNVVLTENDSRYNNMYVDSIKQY
In words: HEK-293 hTLR8 transfectant antagonist assay (NF-κB driven SEAP reporter). It is filed as cell-based. To be noted: hTLR8 reporter cells. The method, then:
The HEK-293 hTLR transfectant assay employs HEK293 cells stably transfected with various hTLRs and transiently co-transfected with a plasmid containing an NF-κB driven secreted embryonic alkaline phosphate (SEAP) reporter gene. Stimulation of TLRs activates their downstream signaling pathways and induces nuclear translocation of the transcription factor NF-κB. Reporter gene activity is then measured using a spectrophotometric assay. To measure antagonist activity, human embryonic kidney (HEK) cells (e.g., 293XL-hTLR8 cells available from InvivoGen, San Diego, Calif.) are prepared according to supplier's instructions and incubated with various concentrations of test compound overnight. The amount of induced […] is measured by reading the absorbance at 650 nm. The compounds of the invention have an MC50 of 25 μM or less, wherein MC50 is defined as the concentration at which 50% of maximum induction is seen. For the TLR8 antagonist assays, cells are transiently transfected with the reporter gene on Day 1 per the supplier's instructions. Antagonist compounds are added to the cultures on Day 2 followed by addition of a TLR8 agonist approximately 2 hours later. Cultures are incubated overnight and SEAP activity is measured on Day 3. In a typical assay, 50,000 HEK239 hTLR8 cells are seeded per culture well and transiently transfected with the SEAP reporter gene. Antagonists are added to cultures in culture medium and […] DMSO over a concentration range of 0.1 nanomolar to 10 micromolar. TLR8 agonists are added to cultures 2 hours later at a fixed concentration (e.g., 1 micromolar or 10 micromolar of Compound A) and cultures are then incubated for 16-24 hrs at 37° C. in a humidified CO incubator. Antagonists are also evaluated for activity in the absence of agonist. TLR8 antagonist activity was measured in a hTLR8 assay format, measuring IC50 values. […] IC50s were then calculated.

Setting [1] is: IC50, nM, vs. VTX-378 1 μM, TLR8 agonist VTX-378 (Compound A) 1 μM.
The mark [2] stands for this setting: TLR8 agonist VTX-378 (Compound A) 0.5 μM, read-out: IC50, nM, vs. VTX-378 0.5 μM.
Where [3] appears, read: IC50, nM, vs. 3M002 1 μM, agonist 3M002 1 μM.
Where [4] appears, read: IC50, nM, vs. 3M002 10 μM, agonist 3M002 10 μM.
The mark [5] stands for this setting: IC50, nM, vs. VTX-378 10 μM, TLR8 agonist VTX-378 (Compound A) 10 μM.

Read-outs that look alike come from different tables or passages of the source.

In general, IC50 refers to the midpoint of a concentration-inhibition curve. Consider `CCOC(=O)C1=Cc2cc(-c3c(C)cccc3C)ccc2N=C(N)C1` [Compound 3162], for which the 50% inhibitory concentration (IC50) fell in the range of 1000 to 10000 nM under setting [1] and 1000 to 10000 nM under setting [2].

With `CCOC(=O)C1=Cc2cc(Oc3ccc(OC)cc3)ccc2N=C(N)C1` [Compound 3125], the IC50 runs as follows: under setting [3], 1000 to 10000 nM; under setting [4], not below 10000 nM; under setting [1], 1000 to 10000 nM; under setting [2], 1000 to 10000 nM.

Consider `CCOC(=O)C1=Cc2cc(C3=CCN(C(=O)N4CCCC4)CC3)ccc2N=C(N)C1` [Compound 3254], for which the IC50 is 1000 to 10000 nM under setting [1] and 1000 to 10000 nM under setting [2].

Turning to `CCOC(=O)C1=Cc2cc(-c3ccc(NC(=O)N(C)C)cc3)ccc2N=C(N)C1` [Compound 3290, Ethyl 2-amino-7-{4-[(dimethylcarbamoyl)amino]phenyl}-3H-1-benzazepine-4-carboxylate], the IC50 is, setting by setting: under setting [3], less than 1000 nM; under setting [4], 1000 to 10000 nM; under setting [1], 1000 to 10000 nM; under setting [2], less than 1000 nM.

For the compound `CCOC(=O)Nc1ccc(-c2ccc3c(c2)C=C(C(=O)OCC)CC(N)=N3)cc1` [Compound 3199, Ethyl 2-amino-7-{4-[(ethoxycarbonyl)amino]phenyl}-3H-1-benzazepine-4-carboxylate], the IC50 by setting is: under setting [1], less than 1000 nM; under setting [2], less than 1000 nM.

Take `CCOC(=O)C1=Cc2cc(-c3cccc(OC)c3)ccc2N=C(N)C1` [Compound 3267, Ethyl 2-amino-7-(3-methoxyphenyl)-3H-1-benzazepine-4-carboxylate]: the IC50 was in the range of 1000 to 10000 nM under setting [4], 1000 to 10000 nM under setting [1] and 1000 to 10000 nM under setting [2].

On to `CCOC(=O)C1=Cc2cc(-c3ccc(C)cc3)ccc2N=C(N)C1` [Compound 3272, Ethyl 2-amino-7-(4-methylphenyl)-3H-1-benzazepine-4-carboxylate], for which the IC50 by setting is: under setting [3], less than 1000 nM; under setting [4], 1000 to 10000 nM; under setting [1], 1000 to 10000 nM; under setting [2], 1000 to 10000 nM.

`CCOC(=O)C1=Cc2cc(-c3cccc(C(=O)N(C)C)c3)ccc2N=C(N)C1` [Compound 3058, Ethyl 2-amino-7-[3-(dimethylcarbamoyl)phenyl]-3H-1-benzazepine-4-carboxylate]: the IC50 runs as follows: under setting [1], 1000 to 10000 nM; under setting [5], not below 10000 nM.

On to `CCOC(=O)C1=Cc2cc(-c3ccc(C(=O)N4CCCC4)cc3)ccc2N=C(NCCO)C1` [Compound 2968], for which the IC50 runs as follows: under setting [1], 1000 to 10000 nM; under setting [5], not below 10000 nM; under setting [2], 1000 to 10000 nM.

Consider `CCOC(=O)C1=Cc2cc(-c3ccc(C(=O)N(C)C)cc3)ccc2N=C(N)C1` [Compound 2937, Ethyl 2-amino-7-[4-(dimethylcarbamoyl)phenyl]-3H-1-benzazepine-4-carboxylate], for which the IC50 reads like this: under setting [1], less than 1000 nM; under setting [5], not below 10000 nM.

With `CCOC(=O)C1=Cc2cc(-c3ccccc3C)ccc2N=C(N)C1` [Compound 3096, Ethyl 2-amino-7-(2-methylphenyl)-3H-1-benzazepine-4-carboxylate], the IC50 reads like this: under setting [1], 1000 to 10000 nM; under setting [5], not below 10000 nM.

`CCOC(=O)C1=Cc2cc(C(=O)OC(C)C)ccc2N=C(N)C1` [Compound 3197]: the IC50 reads like this: under setting [1], 1000 to 10000 nM; under setting [5], 1000 to 10000 nM.

On to `CCOC(=O)C1=Cc2cc(-c3cccc(Cl)c3Cl)ccc2N=C(N)C1` [Compound 3155, Ethyl 2-amino-7-(2,3-dichlorophenyl)-3H-1-benzazepine-4-carboxylate], for which the half-maximal inhibitory concentration (IC50) was not below 10000 nM under setting [1] and 1000 to 10000 nM under setting [2].

`CCOC(=O)C1=Cc2cc(-c3ccccc3Cl)ccc2N=C(N)C1` [Compound 3127, Ethyl 2-amino-7-(2-chlorophenyl)-3H-1-benzazepine-4-carboxylate]: the IC50 was less than 1000 nM under setting [3], 1000 to 10000 nM under setting [4], less than 1000 nM under setting [1] and less than 1000 nM under setting [2].

With `CCOC(=O)C1=Cc2cc(Oc3ccc(C(=O)N(C)C)cc3)ccc2N=C(N)C1` [Compound 3093], the IC50 runs as follows: under setting [4], not below 10000 nM; under setting [1], not below 10000 nM; under setting [5], not below 10000 nM.

As to `CCCN(CC(N)=O)C(=O)C1=Cc2cc(-c3ccc(C(=O)N4CCCC4)cc3C)ccc2N=C(N)C1` [Compound 3343, 2-Amino-N-(2-amino-2-oxoethyl)-7-[2-methyl-4-(pyrrolidin-1-ylcarbonyl)phenyl]-N-propyl-3H-1-benzazepine-4-carboxamide], the 50% inhibitory concentration (IC50) reads like this: under setting [1], less than 1000 nM; under setting [2], less than 1000 nM.

With `CCCN(CC(N)=O)C(=O)C1=Cc2cc(-c3ccc(NC(=O)OCC)cc3Cl)ccc2N=C(N)C1` [Compound 3336, Ethyl (4-{2-amino-4-[(2-amino-2-oxoethyl)(propyl)carbamoyl)-3H-1-benzazepin-7-yl}-3-chlorophenyl)carbamate], the IC50 under setting [3] is less than 1000 nM, the IC50 under setting [4] lay in the range of 1000 to 10000 nM, the IC50 under setting [1] is 1000 to 10000 nM and the 50% inhibitory concentration (IC50) under setting [2] is less than 1000 nM.

In the case of `CCOC(=O)C1=Cc2cc(-c3ccccc3C(C)C)ccc2N=C(N)C1` [Compound 3141, Ethyl 2-amino-7-(2-isopropylphenyl)-3H-1-benzazepine-4-carboxylate], the half-inhibitory concentration (IC50) is 1000 to 10000 nM under setting [1] and less than 1000 nM under setting [2].

As for `CCOC(=O)C1=Cc2cc(-c3ccc(C(=O)N4CCCC4)cc3C)ccc2N=C(N)C1` [Compound 3119, Ethyl 2-amino-7-[2-methyl-4-(pyrrolidin-1-ylcarbonyl)phenyl]-3H-1-benzazepine-4-carboxylate], the IC50 is, setting by setting: under setting [4], less than 1000 nM; under setting [1], less than 1000 nM; under setting [2], less than 1000 nM.

Turning to `CCOC(=O)C1=Cc2cc(-c3ccc(OC)cc3)ccc2N=C(N)C1` [Compound 3098, Ethyl 2-amino-7-(4-methoxyphenyl)-3H-1-benzazepine-4-carboxylate], the IC50 under setting [4] was 1000 to 10000 nM, the IC50 under setting [1] is not below 10000 nM and the IC50 under setting [2] was in the range of 1000 to 10000 nM.

Turning to `CCOC(=O)C1=Cc2cc(-c3cccc(C)c3Cl)ccc2N=C(N)C1` [Compound 3294, Ethyl 2-amino-7-(2-chloro-3-methylphenyl)-3H-1-benzazepine-4-carboxylate], the IC50 under setting [1] fell in the range of 1000 to 10000 nM and the IC50 under setting [2] lay within 1000 to 10000 nM.

Regarding `CCOC(=O)C1=Cc2cc(C3=CCN(C(=O)OCC)CC3)ccc2N=C(N)C1` [Compound 3202], the IC50 runs as follows: under setting [1], less than 1000 nM; under setting [5], less than 1000 nM.

On to `CCOC(=O)C1=Cc2cc(-c3cccc(C(F)(F)F)c3)ccc2N=C(N)C1` [Compound 3059, Ethyl 2-amino-7-[3-(trifluoromethyl)phenyl]-3H-1-benzazepine-4-carboxylate], for which the IC50 was not below 10000 nM under setting [4], 1000 to 10000 nM under setting [1] and not below 10000 nM under setting [5].

Consider `CCOC(=O)C1=Cc2cc(-c3ccccc3C(F)(F)F)ccc2N=C(N)C1` [Compound 3126, Ethyl 2-amino-7-[2-(trifluoromethyl)phenyl]-3H-1-benzazepine-4-carboxylate], for which the IC50 is, setting by setting: under setting [3], less than 1000 nM; under setting [4], 1000 to 10000 nM; under setting [1], 1000 to 10000 nM; under setting [2], less than 1000 nM.

For the origin of these results see patent publication US9718796B2, “Substituted benzoazepines as toll-like receptor modulators” (VENTIRX PHARMACEUTICALS, INC., priority 2011, dated 2017).
